# Assay results reported in US20140186294A1, “PHAGOCYTIC ACTIVITY AS A MARKER OF SYNUCLEINOPATHIC DISEASE” (ELAN PHARMACEUTICALS, INC., priority 2010, published 2014).
# Experiments:
# wild type microglia = experiment: Phagocytosis after INFγ overnight, wild type littermate microglia; assay type: cell-based, mouse; conditions: beads 90 minutes
# Description: (§1) To test a more physiologic system in which altered activation of LRRK2 and elevated synuclein may occur, we tested the effect of INFγ treatment on phagocytosis in wild type and synuclein-overexpressing microglia. As described above INFγ treatment naturally raises LRRK2 levels as well as increased LRRK2 phosphorylation and activity. Using our line 3 heterozygote X heterozygote crosses (generating homozygous alpha synuclein mice) in which, by culturing each pup separately wild type and synuclein overexpressing littermate cultures are generated. Microglia isolated from the various pups were exposed to INFγ overnight and which point […] beads were added for 90 minutes and phagocytosis was assessed while we were still blinded to the genotype of each culture. […] The ability of the environment to impact these pathways may help explain the incomplete penetrance and onset of Parkinson's symptoms observed with various familial forms of PD.
# microglia [1] = experiment: Phagocytosis of 10 micron beads by INFγ treated microglia, with or without LRRK2 inhibitors; assay type: cell-based; conditions: INFγ 24 hr
# LRRK2 [2] = experiment: LRRK2 mRNA, protein and kinase activity in INF-γ treated microglia; assay type: cell-based; conditions: INF-γ treatment of microglia
# Description: FIG. 16: INF-γ treatment of microglia induced LRRK2 mRNA transcript levels and protein levels by about 2 fold.
# We have tested the effect of LRRK2 kinase inhibitors on phagocytosis in cells transformed with LRRK2 G2019S. We have a number of compounds known to inhibit LRRK2 kinase activity. Some of these compounds have enantiomers that are known inhibitors of either cFMS or PLK2 inhibitors but have minimal effect on LRRK2. Pairs of enantiomers one of which is known inhibitor of LRRK2 and one of which inhibits cFMS or PLK2 without substantially effect on LRRK2 can be used to measure LRRK2-specific effects on phagocytosis.
# [3] = system: synuclein overexpressing cells; experiment: Phagocytosis after INFγ overnight, synuclein overexpressing microglia; assay type: cell-based, mouse; conditions: beads 90 minutes
# Description: as §1
# microglia [4] = experiment: Flow cytometry phagocytosis assay with strepavidin or biotin beads; assay type: cell-based; conditions: 30 minutes pretreatment, beads 90 minutes
# Protocol: Phagocytosis assay: 6 μm strepavidin beads or 5.2 μm biotin beads were added to microglia for 90 minutes. Cells were moved to ice and stained with either a biotin or strepavidin labeled antibodies to identify un-ingested beads. To confirm the ability to identify intra-verses extracellular bound beads by flow cytometry microglia were treated with Cytochalasin D for 30 minutes prior to the addition of beads.
# LRRK2 [5] = experiment: LRRK2 phosphorylation in stimulated murine microglia (PT1967 P-LRRK2 antibody); assay type: cell-based, mouse; conditions: primary microglia stimulated for various times
# Protocol: Although neurons express LRRK2, this expression appears to be low relative to that of B-cells and macrophages. […] For example, murine microglia were stimulated with MCSF for various times or […] beads for 30 minutes. LRRK2 phosphorylation was probed with PT1967 P-LRRK2 antibody.
# H4 cells = experiment: Bead phagocytosis in H4 cells with tetracycline inducible synuclein transfected with Rab proteins; assay type: cell-based, human; conditions: synuclein overexpressing H4 cells (tetracycline 48 hours), 4 μM beads 90 minutes
# Protocol: FIG. 11: Rabs proteins were transfected into a stable H4 cells containing a tetracycline inducible synuclein construct. Cells were treated or untreated with tetracycline for 48 hours and then fed 4 μM beads for 90 minutes and a phagocytic index calculated.
# In quantifying phagocytosis in cells overexpressing synuclein we noticed that synuclein translocates to the phagocytic cup and localized with regions of active actin rearrangement. Under resting conditions synuclein resides in the cytoplasm and following 45 and 90 minutes of bead addition synuclein translocates to sites of actin polymerization and bead contact. SNARE complexes are composed of three components, a SNAP, a syntaxin, and a VAMP protein. These three proteins come together and prime vesicles for fusion with the plasma membrane. On fusion vesicles release their contents and SNARE complexes are disassembled by two adaptor proteins, NSF and α-SNAP. Some members from these dissociated complexes recycle back to the cytoplasm via recycling endosomes and can be used to prime subsequent fusion events. All three protein members of the SNARE complex are alpha helices and on assembly form an energy favorable, very unique SDS stable complex. Although these complexes resist SDS dissociation they will dissociate following boiling. Therefore one SNARE complexes can be flowed as SDS stable complexes in boiled and unboiled lysates. We hypothesized that defective vesicle mobilization may be associated with or due to altered SNARE complex formation of SNARE complex. H4 cells transfected with synuclein were fed beads for 15, 45, or 90 minutes, samples were lysed and run on western formation. […] Alterations in SNARE complexes were also observed in microglia isolated from synuclein genomic mice (data not shown). To elucidate how synuclein alters vesicle trafficking and SNARE complex formation/function we assessed interaction of synuclein with components of the SNARE family. […] To test the possibility that molecules which facilitate vesicle movement could overcome the ability of elevated levels of synuclein to block phagocytosis, a stable H4 cell line overexpressing synuclein was transfected with various Rab proteins. We verified that the Rab proteins were overexpressed and phagocytosis was assessed in wild type and synuclein over expressing cells.
molecule,measurement,setting,value
"INFγ: interferon gamma, described as agonist of LRRK2",phagocytosis,wild type microglia,enhanced phagocytosis
same,phagocytosis of 10 micron beads,microglia [1],increased phagocytosis
same,induction of LRRK2 mRNA transcript levels,LRRK2 [2],about 2 fold
same,induction of LRRK2 protein levels,LRRK2 [2],about 2 fold
same,phagocytosis,[3],even further reduction in phagocytosis
C=C1[C@@H](C)[C@H]2[C@H](Cc3ccccc3)NC(=O)[C@]23[C@H](OC(C)=O)/C=C/[C@@](C)(O)C(=O)[C@@H](C)C/C=C/[C@H]3[C@@H]1O [Cytochalasin D],phagocytosis of 5 and 6 micron beads,microglia [4],blocked this phagocytosis
"MCSF: stimulus that engages the actin cytoskeleton, used on murine microglia (protein, UniProt P07141 33-552, looked up) Macrophage colony-stimulating …: KEVSEHCSHMIGNGHLKVLQQLIDSQMETSCQIAFEFVDQEQLDDPVCYLKKAFFLVQDIIDETMRFKDNTPNANATERLQELSNNLNSCFTKDYEEQNKACVRTFHETPLQLLEKIKNFFNETKNLLEKDWNIFTKNCNNSFAKCSSRDVVTKPDCNCLYPKATPSSDPASASPHQPPAPSMAPLAGLAWDDSQRTEGSSLLPSELPLRIEDPGSAKQRPPRSTCQTLESTEQPNHGDRLTEDSQPHPSAGGPVPGVEDILESSLGTNWVLEEASGEASEGFLTQEAKFSPSTPVGGSIQAETDRPRALSASPFPKSTEDQKPVDITDRPLTEVNPMRPIGQTQNNTPEKTDGTSTLREDHQEPGSPHIATPNPQRVSNSATPVAQLLLPKSHSWGIVLPLGELEGKRSTRDRRSPAELEGGSASEGAARPVARFNSIPLTDTGHVEQHEGSSDPQIPESVFHLLVPGIILVLLTVGGLLFYKWKWRSHRDPQTLDSSVGRPEDSSLTQDEDRQVELPV",LRRK2 phosphorylation,LRRK2 [5],can be enhanced
"INFγ: interferon gamma, described as agonist of LRRK2 (protein, UniProt P01579 24-161, looked up) Interferon gamma: QDPYVKEAENLKKYFNAGHSDVADNGTLFLGILKNWKEESDRKIMQSQIVSFYFKLFKNFKDDQSIQKSVETIKEDMNVKFFNSNKKKRDDFEKLTNYSVTDLNVQRKAIHELIQVMAELSPAAKTGKRKRSQMLFRG","LRRK2 kinase activity (LRRK2 phosphorylation, LRRK-tide phosphorylation assay)",LRRK2 [2],apparent increase in LRRK2 kinase activity
"Rab3b: Rab protein (Swiss Prot P20337) overexpressed by transfection in H4 cells (protein, UniProt P20337 2-219, looked up) Ras-related protein Rab-3B: ASVTDGKTGVKDASDQNFDYMFKLLIIGNSSVGKTSFLFRYADDTFTPAFVSTVGIDFKVKTVYRHEKRVKLQIWDTAGQERYRTITTAYYRGAMGFILMYDITNEESFNAVQDWATQIKTYSWDNAQVILVGNKCDMEEERVVPTEKGQLLAEQLGFDFFEASAKENISVRQAFERLVDAICDKMSDSLDTDPSMLGSSKNTRLSDTPPLLQQNCSC",phagocytosis (phagocytic index),H4 cells,rescued synuclein modulation of phagocytosis
same,phagocytosis (phagocytic index),H4 cells; listed as Rab3B,restored phagocytosis
"Rab11b: Rab protein (Swiss Prot Q15907) overexpressed by transfection in H4 cells (protein, UniProt Q15907 2-215, looked up) Ras-related protein Rab-11B: GTRDDEYDYLFKVVLIGDSGVGKSNLLSRFTRNEFNLESKSTIGVEFATRSIQVDGKTIKAQIWDTAGQERYRAITSAYYRGAVGALLVYDIAKHLTYENVERWLKELRDHADSNIVIMLVGNKSDLRHLRAVPTDEARAFAEKNNLSFIETSALDSTNVEEAFKNILTEIYRIVSQKQIADRAAHDESPGNNVVDISVPPTTDGQKPNKLQCC",phagocytosis (phagocytic index),H4 cells,rescued synuclein modulation of phagocytosis
same,phagocytosis (phagocytic index),H4 cells; listed as Rab11B,restored phagocytosis
